Source: patent US6054435A, “6-O-substituted macrolides having antibacterial activity” (priority 1999, dated 2000)
Converted amounts (≈) assume the structure as drawn.

Columns and labels:
Test in all cases: in vitro antibacterial activity (MIC), agar dilution
Format in all cases: cell-based
[1] = system: Haemophilis Influenzae DILL AMP R; conditions: organism code WW; BHI agar, 35-37° C., 20 to 24 hours; unit assumed
Procedure, shortened: (§1)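 Antibacterial MIC determined by agar dilution in BHI agar with twelve successive concentrations; controls comprised compound-free plates and a same-class reference antibiotic. MIC: lowest concentration giving no growth, slight haze or sparsely isolated colonies.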

[2] = system: Staphylococcus aureus NCTC10649M; conditions: organism code EE; BHI agar, 35-37° C., 20 to 24 hours; unit assumed
Procedure, shortened: as §1

[3] = system: Nocardia Asteroides ATCC9970; conditions: organism code VV; BHI agar, 35-37° C., 20 to 24 hours; unit assumed
Procedure, shortened: as §1

Escherichia coli DC-2 = conditions: organism code SS; BHI agar, 35-37° C., 20 to 24 hours; unit assumed
Procedure, shortened: as §1

[4] = system: Streptococcus agalactiae CMX 508; conditions: organism code KK; BHI agar, 35-37° C., 20 to 24 hours; unit assumed
Procedure, shortened: as §1

[5] = system: Enterococcus faecium ATCC 8043; conditions: organism code II; BHI agar, 35-37° C., 20 to 24 hours; unit assumed
Procedure, shortened: as §1

Escherichia coli JUHL = conditions: organism code QQ; BHI agar, 35-37° C., 20 to 24 hours; unit assumed
Procedure, shortened: as §1

Escherichia coli SS = conditions: organism code RR; BHI agar, 35-37° C., 20 to 24 hours; unit assumed
Procedure, shortened: as §1

[6] = system: Streptococcus Pneumonia 5979; conditions: organism code ZZ; BHI agar, 35-37° C., 20 to 24 hours; unit assumed
Procedure, shortened: as §1

[7] = system: Streptococcus Pneumonia ATCC6303; conditions: organism code XX; BHI agar, 35-37° C., 20 to 24 hours; unit assumed
Procedure, shortened: as §1

[8] = system: Staphylococcus aureus CMX 642A; conditions: organism code DD; BHI agar, 35-37° C., 20 to 24 hours; unit assumed
Procedure, shortened: as §1

Candida albicans CCH 442 = conditions: organism code TT; BHI agar, 35-37° C., 20 to 24 hours; unit assumed
Procedure, shortened: as §1

[9] = system: Staphylococcus aureus A5177; conditions: organism code BB; BHI agar, 35-37° C., 20 to 24 hours; unit assumed
Procedure, shortened: as §1

[10] = system: Staphylococcus aureus CMX 553; conditions: organism code FF; BHI agar, 35-37° C., 20 to 24 hours; unit assumed
Procedure, shortened: as §1

[11] = system: Streptococcus pyogenes PIU 2548; conditions: organism code NN; BHI agar, 35-37° C., 20 to 24 hours; unit assumed
Procedure, shortened: as §1

[12] = system: Streptococcus pyogenes 930; conditions: organism code MM; BHI agar, 35-37° C., 20 to 24 hours; unit assumed
Procedure, shortened: as §1

[13] = system: Mycobacterium smegmatis ATCC 114; conditions: organism code UU; BHI agar, 35-37° C., 20 to 24 hours; unit assumed
Procedure, shortened: as §1

[14] = system: Staphylococcus epidermidis 3519; conditions: organism code HH; BHI agar, 35-37° C., 20 to 24 hours; unit assumed
Procedure, shortened: as §1

[15] = system: Staphylococcus aureus ATCC 6538P; conditions: organism code AA; BHI agar, 35-37° C., 20 to 24 hours; unit assumed
Procedure, shortened: as §1

[16] = system: Micrococcus luteus ATCC 4698; conditions: organism code PP; BHI agar, 35-37° C., 20 to 24 hours; unit assumed
Procedure, shortened: (§2)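 Endpoint: lowest concentration with no growth, slight haze or sparsely isolated colonies at the inoculum spot, judged against a compound-free BHI control. Strains were replicator-inoculated at 1:100 (1:10 for Streptococcus and other slow growers).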

[17] = system: Streptococcus pyogenes EES61; conditions: organism code LL; BHI agar, 35-37° C., 20 to 24 hours; unit assumed
Procedure, shortened: as §1

[18] = system: Staphylococcus aureus A-5278; conditions: organism code CC; BHI agar, 35-37° C., 20 to 24 hours; unit assumed
Procedure, shortened: as §1

[19] = system: Streptococcus Pneumonia 5649; conditions: organism code ZZA; BHI agar, 35-37° C., 20 to 24 hours; unit assumed
Procedure, shortened: as §1

[20] = system: Micrococcus luteus ATCC 9341; conditions: organism code OO; BHI agar, 35-37° C., 20 to 24 hours; unit assumed
Procedure, shortened: as §2

[21] = system: Streptococcus bovis A-5169; conditions: organism code JJ; BHI agar, 35-37° C., 20 to 24 hours; unit assumed
Procedure, shortened: as §1

[22] = system: Staphylococcus aureus 1775; conditions: organism code GG; BHI agar, 35-37° C., 20 to 24 hours; unit assumed
Procedure, shortened: as §1

[23] = system: Streptococcus Pneumonia GYR 1171; conditions: organism code YY; BHI agar, 35-37° C., 20 to 24 hours; unit assumed
Procedure, shortened: as §1

Structure (SMILES)	MIC [1] [µg/mL]	MIC [2] [µg/mL]	MIC [3] [µg/mL]	MIC (Escherichia coli DC-2) [µg/mL]	MIC [4] [µg/mL]	MIC [5] [µg/mL]	MIC (Escherichia coli JUHL) [µg/mL]	MIC (Escherichia coli SS) [µg/mL]	MIC [6] [µg/mL]	MIC [7] [µg/mL]	MIC [8] [µg/mL]	MIC (Candida albicans CCH 442) [µg/mL]	MIC [9] [µg/mL]	MIC [10] [µg/mL]	MIC [11] [µg/mL]	MIC [12] [µg/mL]	MIC [13] [µg/mL]	MIC [14] [µg/mL]	MIC [15] [µg/mL]	MIC [16] [µg/mL]	further results
CC[C@H]1OC(=O)[C@H](C)C(=O)[C@H](C)[C@@H](O[C@@H]2O[C@H](C)C[C@H](N(C)C)[C@H]2O)[C@](C)(OCC#Cc2ccc(-c3cncc(C(N)=O)c3)s2)C[C@@H](C)C(=O)[C@H](C)[C@H]2NC(=O)O[C@@]21C [Example 9]	2 (≈ 2.38 µM)	0.2 (≈ 0.238 µM)	0.1 (≈ 0.119 µM)	50 (≈ 59.6 µM)	0.02 (≈ 0.0238 µM)	0.05 (≈ 0.0596 µM)	50 (≈ 59.6 µM)	0.78 (≈ 0.93 µM)	0.03 (≈ 0.0358 µM)	≤ 0.004	0.1 (≈ 0.119 µM)	> 100	0.1 (≈ 0.119 µM)	0.1 (≈ 0.119 µM)	0.2 (≈ 0.238 µM)	0.2 (≈ 0.238 µM)	6.2 (≈ 7.39 µM)	0.1 (≈ 0.119 µM)	0.1 (≈ 0.119 µM)	0.1 (≈ 0.119 µM)	MIC [17]: 0.02 µg/mL (≈ 0.0238 µM); MIC [18]: > 100 µg/mL; MIC [19]: 0.25 µg/mL (≈ 0.298 µM); MIC [20]: 0.02 µg/mL (≈ 0.0238 µM); MIC [21]: 0.02 µg/mL (≈ 0.0238 µM); MIC [22]: > 100 µg/mL; MIC [23]: ≤ 0.004 µg/mL
CC[C@H]1OC(=O)[C@H](C)C(=O)[C@H](C)[C@@H](O[C@@H]2O[C@H](C)C[C@H](N(C)C)[C@H]2O)[C@](C)(OC/C=C/c2cncc(-c3ncccn3)c2)C[C@@H](C)C(=O)[C@H](C)[C@H]2NC(=O)O[C@@]21C [Example 46]	4 (≈ 5.04 µM)	0.2 (≈ 0.252 µM)	0.05 (≈ 0.063 µM)	100 (≈ 126 µM)	0.02 (≈ 0.0252 µM)	0.05 (≈ 0.063 µM)	50 (≈ 63 µM)	0.39 (≈ 0.491 µM)	128 (≈ 161 µM)	0.03 (≈ 0.0378 µM)	0.2 (≈ 0.252 µM)	> 100	0.2 (≈ 0.252 µM)	0.2 (≈ 0.252 µM)	0.2 (≈ 0.252 µM)	12.5 (≈ 15.7 µM)	6.2 (≈ 7.81 µM)	0.1 (≈ 0.126 µM)	0.1 (≈ 0.126 µM)	0.2 (≈ 0.252 µM)	MIC [17]: 0.02 µg/mL (≈ 0.0252 µM); MIC [18]: > 100 µg/mL; MIC [19]: 0.5 µg/mL (≈ 0.63 µM); MIC [20]: 0.05 µg/mL (≈ 0.063 µM); MIC [21]: 0.01 µg/mL (≈ 0.0126 µM); MIC [22]: > 100 µg/mL; MIC [23]: 0.03 µg/mL (≈ 0.0378 µM)
CC[C@H]1OC(=O)[C@H](C)C(=O)[C@H](C)[C@@H](O[C@@H]2O[C@H](C)C[C@H](N(C)C)[C@H]2O)[C@](C)(OC/C=C/c2cncc(Br)c2)C[C@@H](C)C(=O)[C@H](C)[C@H]2NC(=O)O[C@@]21C [Example 40]	4 (≈ 5.03 µM)	0.2 (≈ 0.252 µM)	0.1 (≈ 0.126 µM)	50 (≈ 62.9 µM)	0.02 (≈ 0.0252 µM)	0.05 (≈ 0.0629 µM)	100 (≈ 126 µM)	0.39 (≈ 0.491 µM)	> 128	0.015 (≈ 0.0189 µM)	0.2 (≈ 0.252 µM)	> 100	0.2 (≈ 0.252 µM)	0.2 (≈ 0.252 µM)	0.1 (≈ 0.126 µM)	50 (≈ 62.9 µM)	0.39 (≈ 0.491 µM)	0.2 (≈ 0.252 µM)	0.1 (≈ 0.126 µM)	0.2 (≈ 0.252 µM)	MIC [17]: 0.02 µg/mL (≈ 0.0252 µM); MIC [18]: > 100 µg/mL; MIC [19]: 0.25 µg/mL (≈ 0.315 µM); MIC [20]: 0.02 µg/mL (≈ 0.0252 µM); MIC [21]: 0.02 µg/mL (≈ 0.0252 µM); MIC [22]: > 100 µg/mL; MIC [23]: 0.015 µg/mL (≈ 0.0189 µM)
CC[C@H]1OC(=O)[C@H](C)C(=O)[C@H](C)[C@@H](O[C@@H]2O[C@H](C)C[C@H](N(C)C)[C@H]2O)[C@](C)(OC/C=C/c2ccc(-c3ccsc3)s2)C[C@@H](C)C(=O)[C@H](C)[C@H]2NC(=O)O[C@@]21C [Example 76]	8 (≈ 9.96 µM)	0.05 (≈ 0.0623 µM)	0.1 (≈ 0.125 µM)	100 (≈ 125 µM)	0.01 (≈ 0.0125 µM)	0.02 (≈ 0.0249 µM)	100 (≈ 125 µM)	0.2 (≈ 0.249 µM)	16 (≈ 19.9 µM)	≤ 0.004	0.1 (≈ 0.125 µM)	> 100	0.1 (≈ 0.125 µM)	0.1 (≈ 0.125 µM)	0.1 (≈ 0.125 µM)	3.1 (≈ 3.86 µM)	0.78 (≈ 0.971 µM)	0.1 (≈ 0.125 µM)	0.1 (≈ 0.125 µM)	0.2 (≈ 0.249 µM)	MIC [17]: 0.01 µg/mL (≈ 0.0125 µM); MIC [18]: 100 µg/mL (≈ 125 µM); MIC [19]: 0.125 µg/mL (≈ 0.156 µM); MIC [20]: 0.05 µg/mL (≈ 0.0623 µM); MIC [21]: ≤ 0.005 µg/mL; MIC [22]: 100 µg/mL (≈ 125 µM); MIC [23]: ≤ 0.004 µg/mL
